{"source": "patent US5002931A", "about": "“GRF analogs VII” (The Salk Institute for Biological Studies, priority 1987, dated 1991)", "note": "Square brackets hold non-standard residues; d marks the D form. Ends that are not written are not given here. Peptide text beside a SMILES is read from it. NMeY = CN[C@@H](Cc1ccc(O)cc1)C(=O)O; Nle = CCCC[C@H](N)C(=O)O", "data": [{"test_system": "cells of rat pituitary glands", "test": "in vitro assay of growth hormone release from cultured rat pituitary cells, GH measured by radioimmunoassay", "assay_type": "cell-based", "details": "release of GH at equimolar concentrations, side-by-side with synthetic hpGRF(1-40)-OH standard = 100%; incubation 3 to 4 hours", "procedure": "To determine the relative effectiveness of certain representative synthetic peptides to promote the release of growth hormone, in vitro assays are carried out using synthetic hpGRF(1-40)-OH as a standard in side-by-side comparison with equimolar concentrations of the representative analogs which have been synthesized. Cultures are used which include cells of rat pituitary glands removed some three to five days previously. Such cultures are considered optimal for the secretion of growth hormone and are used for the comparative testing, in the general manner described in Vale et al. Endocrinoloqy, 91, 562-572 (1972) and as more particularly described in Vale et al. Endocrinology, 112, 1553-1555 (1983). Incubation with the substance to be tested is carried out for 3 to 4 hours, and aliquots of the culture medium are removed and processed to measure their contents in immunoreactive GH(ir GH) by a well-characterized radioimmunoassay.", "units": {"Comparison %": "%"}, "values": [{"compound": "CCCC[C@H](NC(=O)[C@@H](NC(=O)[C@H](CC(=O)O)NC(=O)[C@H](CCC(N)=O)NC(=O)[C@H](CC(C)C)NC(=O)[C@H](CC(C)C)NC(=O)[C@H](CCCCN)NC(=O)[C@H](CCCNC(=N)N)NC(=O)[C@H](C)NC(=O)[C@H](CO)NC(=O)[C@H](CC(C)C)NC(=O)[C@H](CCC(N)=O)NC(=O)[C@H](C)NC(=O)[C@H](CC(C)C)NC(=O)[C@@H](NC(=O)[C@H](CCCCN)NC(=O)[C@H](CCCNC(=N)N)NC(=O)[C@H](Cc1ccc(O)cc1)NC(=O)[C@H](CO)NC(=O)[C@H](CC(=O)O)NC(=O)[C@@H](NC(=O)[C@H](Cc1ccccc1)NC(=O)[C@@H](NC(=O)[C@H](C)NC(=O)[C@H](CC(=O)O)NC(=O)[C@H](C)NC(=O)[C@H](Cc1ccc(O)cc1)NC)[C@@H](C)CC)[C@@H](C)O)C(C)C)[C@@H](C)CC)C(=O)N[C@@H](CC(N)=O)C(=O)N[C@@H](CCCNC(=N)N)C(N)=O", "note": "[[N^a MeTyr^1, Asp^8, Ala^15, Nle^27, Asn^28]-hGRF(1-29)-NH2] (H-[NMeY]ADAIFTDSYRKVLAQLSARKLLQDI[Nle]NR-NH2)", "Comparison %": 192}, {"compound": "hGRF(1-40)-OH (YADAIFTNSYRKVLGQLSARKLLQDIMSRQQGESNQERGA-OH; UniProt P01286 32-71, looked up, fragment) [synthetic human pancreatic (tumor) GH releasing factor 1-40 free acid, used as standard in the assays, reference compound]", "Comparison %": 100}, {"compound": "CCCC[C@H](NC(=O)[C@@H](NC(=O)[C@H](CC(=O)O)NC(=O)[C@H](CCC(N)=O)NC(=O)[C@H](CC(C)C)NC(=O)[C@H](CC(C)C)NC(=O)[C@H](CCCCN)NC(=O)[C@H](CCCNC(=N)N)NC(=O)[C@H](C)NC(=O)[C@H](CO)NC(=O)[C@H](CC(C)C)NC(=O)[C@H](CCC(N)=O)NC(=O)[C@H](C)NC(=O)[C@H](CC(C)C)NC(=O)[C@@H](NC(=O)[C@H](CCCCN)NC(=O)[C@H](CCCNC(=N)N)NC(=O)[C@H](Cc1ccc(O)cc1)NC(=O)[C@H](CO)NC(=O)[C@H](CCCCN)NC(=O)[C@@H](NC(=O)[C@H](Cc1ccccc1)NC(=O)[C@@H](NC(=O)[C@H](C)NC(=O)[C@H](CC(=O)O)NC(=O)[C@H](C)NC(=O)[C@H](Cc1ccc(O)cc1)NC)[C@@H](C)CC)[C@@H](C)O)C(C)C)[C@@H](C)CC)C(=O)N[C@@H](CC(N)=O)C(=O)N[C@@H](CCCNC(=N)N)C(N)=O", "note": "[[N^a MeTyr^1, Lys^8, Ala^15, Nle^27, Asn^28]-hGRF(1-29)-NH2] (H-[NMeY]ADAIFTKSYRKVLAQLSARKLLQDI[Nle]NR-NH2)", "Comparison %": 556}, {"compound": "CCCC[C@H](NC(=O)[C@@H](NC(=O)[C@H](CC(=O)O)NC(=O)[C@H](CCC(N)=O)NC(=O)[C@H](CC(C)C)NC(=O)[C@H](CC(C)C)NC(=O)[C@@H](CCCCN)NC(=O)[C@H](CCCNC(=N)N)NC(=O)[C@H](C)NC(=O)[C@H](CO)NC(=O)[C@H](CC(C)C)NC(=O)[C@H](CCC(N)=O)NC(=O)CNC(=O)[C@H](CC(C)C)NC(=O)[C@@H](NC(=O)[C@H](CCCCN)NC(=O)[C@H](CCCNC(=N)N)NC(=O)[C@@H](Cc1ccc(O)cc1)NC(=O)[C@H](CO)NC(=O)[C@H](CC(N)=O)NC(=O)[C@@H](NC(=O)[C@H](Cc1ccccc1)NC(=O)[C@@H](NC(=O)[C@H](C)NC(=O)[C@H](CC(=O)O)NC(=O)[C@H](C)NC(=O)[C@H](Cc1ccc(O)cc1)NC)[C@@H](C)CC)[C@@H](C)O)C(C)C)[C@@H](C)CC)C(=O)N[C@@H](CO)C(=O)N[C@@H](CCCNC(=N)N)C(N)=O", "note": "[[N^a MeTyr^1, D-Tyr^10, D-Lys^21, Nle^27]-hGRF(1-29)-NH2]", "Comparison %": 40}, {"compound": "CCCC[C@H](NC(=O)[C@@H](NC(=O)[C@H](CC(=O)O)NC(=O)[C@H](CCC(N)=O)NC(=O)[C@H](CC(C)C)NC(=O)[C@H](CC(C)C)NC(=O)[C@@H](CCCCN)NC(=O)[C@H](CCCNC(=N)N)NC(=O)[C@H](C)NC(=O)[C@H](CO)NC(=O)[C@H](CC(C)C)NC(=O)[C@H](CCC(N)=O)NC(=O)CNC(=O)[C@H](CC(C)C)NC(=O)[C@@H](NC(=O)[C@H](CCCCN)NC(=O)[C@H](CCCNC(=N)N)NC(=O)[C@H](Cc1ccc(O)cc1)NC(=O)[C@H](CO)NC(=O)[C@H](CC(N)=O)NC(=O)[C@@H](NC(=O)[C@H](Cc1ccccc1)NC(=O)[C@@H](NC(=O)[C@H](C)NC(=O)[C@H](CC(=O)O)NC(=O)[C@H](C)NC(=O)[C@H](Cc1ccc(O)cc1)NC)[C@@H](C)CC)[C@@H](C)O)C(C)C)[C@@H](C)CC)C(=O)N[C@@H](CO)C(=O)N[C@@H](CCCNC(=N)N)C(N)=O", "note": "[[N^a MeTyr^1, D-Lys^21, Nle^27]-hGRF(1-29)-NH]", "Comparison %": 172}]}]}
